Series [1] deals with human T-lymphoblastoid cell line, CEM-SS. Briefly: Cytotoxicity (MTS) in CEM-SS cells. Particulars: concentration resulting in 50% inhibition of cell growth. The format is cell-based. How it is done: (§1) The compounds of the present invention were tested for antiretroviral activity against human immunodeficiency virus-1 (HIV) using infection of the human T-lymphoblastoid cell line, CEM-SS, with the HIV strain HIV-1IIIB (Weislow et al., 1989, J. Natl. Cancer Inst. 81, 577-586). In this MTS cytoprotection assay, each experiment included cell control wells (cells only), virus control wells (cells plus virus), drug toxicity wells (cells plus drug only), drug colorimetric control wells (drug only) as well as experimental wells (drug plus cells plus virus). Compounds were first dissolved in DMSO and tested using six half-log dilutions, starting with a high concentration of either 20 or 2 μM. […] was added to each well in a volume of 50 μL, the amount of virus determined to give approximately 90% cell killing at 6 days post-infection. At assay termination, assay plates were stained with the soluble tetrazolium-based dye MTS (CellTiter 96 Reagent, Promega) to determine cell viability and quantify compound toxicity. MTS is metabolized by the mitochondria enzymes of metabolically active cells to yield a soluble formazan product, providing a quantitative analysis of cell viability and compound cytotoxicity. The assay was validated in parallel experiments using Zidovudine (3′-azido-3′-deoxythymidine or AZT) as a positive control. The assay included determinations of compound EC50 (concentration inhibiting virus replication by 50%), IC50 (concentration resulting in 50% inhibition of cell growth) and a selectivity index (IC50/EC50).

Another series deals with HCV RNA replicon ET. The series can be described thus: HCV RNA replicon luciferase (LUC) reporter assay in ET cell line. The format is cell-based. Particulars: replicon LUC activity, ET cells, 72 hours; for pEC50: concentration reducing viral replication by 50%; for EC90: concentration reducing viral replication by 90%. The text has this:
(§2) Compounds were examined in the human hepatoma cell line ET (lub ubi neo/ET), a HCV RNA replicon containing a stable luciferase (LUC) reporter. The HCV RNA replicon ET contains the 5′ end of HCV (with the HCV Internal Ribosome Entry Site (IRES) and the first few amino acids of the HCV core protein) which drives the production of a firefly luciferase (LUC), ubiquitin, and neomycin phosphotransferase (NeoR) fusion protein. Ubiquitin cleavage releases the LUC and NeoR proteins. The EMCV IRES element controls the translation of the HCV […] NS3-NS5. The NS3 protein cleaves the HCV polyprotein to release the mature NS3, NS4A, NS4B, NS5A and NS5B proteins that are required for HCV replication. At the 3′ end of the replicon is the authentic 3′ NTR of HCV. The activity of the LUC reporter is directly proportional to HCV replication levels and positive-control antiviral compounds produce a reproducible antiviral response using the LUC endpoint.
(§3) The compounds were dissolved in DMSO at five half-log concentrations each, ranging from either 0.02 to 2 μM or 0.2 to 20 μM. Subconfluent cultures of the ET line were plated out into 96 well plates dedicated for the analysis of cell numbers (cytotoxicity) or antiviral activity and the next day the compounds were added to the appropriate wells. […] Compound EC50 and EC90 values were derived from HCV RNA levels assessed as HCV RNA replicon derived LUC activity. […] Compound IC50 and IC90 values were calculated using a colorimetric assay as an indication of cell numbers and cytotoxicity. The activity of the LUC reporter is directly proportional to HCV RNA levels in the human cell line. The HCV-replicon assay was validated in parallel experiments using interferon-alpha-2b as a positive control.

The test system of series [2] is human hepatoma cell line ET (lub ubi neo/ET). Briefly: Cytotoxicity (colorimetric cell number assay) in HCV replicon ET cell line. Conditions: for pIC50: read-out: Cytotoxicity IC50, concentration inhibiting cell viability by 50%, ET cells, 72 hours; for IC90: read-out: Cytotoxicity IC90, concentration inhibiting cell viability by 90%, ET cells, 72 hours.
Source text: as §2, §3
(A replicon is a self-replicating genome or part of one, used to study replication in cells.)

In the next series the test system is HIV-1IIIB. The series can be described thus: HIV MTS cytoprotection assay in CEM-SS cells. The format is cell-based, human immunodeficiency virus-1 (HIV). Particulars: concentration inhibiting virus replication by 50%, 6 days post-infection, NS is no significant activity. How it is done:
as §1
On the technique in general: Tetrazolium assays rely on reduction of a dye to a coloured formazan, in cell work by metabolically active cells.

As a reminder, the pEC50 is the EC50 on a negative log10 scale, so that one unit is a factor of ten. Low readings indicate a large EC50, high ones a small EC50. As a reminder, the EC90 is the point of the concentration-response curve where the effect stands at 90%. A high value points to weaker potency.

pEC50, pIC50: −log10 of the molar value. Bounds are passed on as bounds.

`C/C=C/C[C@@H](C)[C@@H](O)[C@H]1C(=O)N[C@@H](CC)C(=O)N(C)C(OCc2ccco2)C(=O)N(C)[C@@H](CC(C)C)C(=O)N[C@@H](C(C)C)C(=O)N(C)[C@@H](CC(C)C)C(=O)N[C@@H](C)C(=O)N[C@H](C)C(=O)N(C)[C@@H](CC(C)C)C(=O)N(C)[C@@H](CC(C)C)C(=O)N(C)[C@@H](C(C)C)C(=O)N1C` (stereo partly drawn) [D, 3-[(furan-2-yl)methoxy]cyclosporin] gave a pIC50 in series [1] of less than 4.70. In the series on HCV RNA replicon ET, this compound showed a pEC50 of 6.54 and an EC90 of 570 nM. For the same compound, in series [2], the pIC50 is 4.74 and the IC90 is greater than 20000 nM. The pEC50 in the series with HIV-1IIIB is 6.24.

As to 3-benzyloxycyclosporin [Compound B], the pIC50 in series [1] is less than 4.70. In the series on HCV RNA replicon ET, this compound showed a pEC50 of 6.59 and a concentration for an effect of 90% (EC90) of 590 nM. Besides, in series [2], the pIC50 is 4.70 and the IC90 was greater than 20000 nM. Further, in the series with HIV-1IIIB, the pEC50 was 6.23.

In the case of `C/C=C/C[C@@H](C)[C@@H](O)[C@H]1C(=O)N[C@@H](CC)C(=O)N(C)C(OCc2ccoc2)C(=O)N(C)[C@@H](CC(C)C)C(=O)N[C@@H](C(C)C)C(=O)N(C)[C@@H](CC(C)C)C(=O)N[C@@H](C)C(=O)N[C@H](C)C(=O)N(C)[C@@H](CC(C)C)C(=O)N(C)[C@@H](CC(C)C)C(=O)N(C)[C@@H](C(C)C)C(=O)N1C` (stereo partly drawn) [Compound E, 3-[(furan-3-yl)methoxy]cyclosporin], in series [1], the pIC50 is less than 4.70. In addition, in the series on HCV RNA replicon ET, the negative-log EC50 (pEC50) is 6.60 and the EC90 worked out at 600 nM. In series [2], the pIC50 was less than 4.70 and the IC90 is greater than 20000 nM. In the series with HIV-1IIIB, the pEC50 was 6.06.

In turn, `CC=CCC(C)C(O)C1C(=O)NC(CC)C(=O)N(C)C(SCc2ccccc2)C(=O)N(C)C(CC(C)C)C(=O)NC(C(C)C)C(=O)N(C)C(CC(C)C)C(=O)NC(C)C(=O)NC(C)C(=O)N(C)C(CC(C)C)C(=O)N(C)C(CC(C)C)C(=O)N(C)C(C(C)C)C(=O)N1C` (stereo not drawn) [Compound A, 3-benzylthiocyclosporin] had a pIC50 in series [1] of less than 4.70. In addition, in the series with HCV RNA replicon ET, the pEC50 is 6.14 and the EC90 was 1840 nM. In series [2], the pIC50 is 4.70 and the IC90 is greater than 20000 nM. This compound showed a pEC50 with HIV-1IIIB of 6.28.

As to `C/C=C/C[C@@H](C)[C@@H](O)[C@H]1C(=O)N[C@@H](CC)C(=O)N(C)C(OCc2cccs2)C(=O)N(C)[C@@H](CC(C)C)C(=O)N[C@@H](C(C)C)C(=O)N(C)[C@@H](CC(C)C)C(=O)N[C@@H](C)C(=O)N[C@H](C)C(=O)N(C)[C@@H](CC(C)C)C(=O)N(C)[C@@H](CC(C)C)C(=O)N(C)[C@@H](C(C)C)C(=O)N1C` (stereo partly drawn) [C, 3-[(thiophene-2-yl)methoxy]cyclosporin], the pIC50 in series [1] is less than 4.70; in series [2], 4.96. Besides, the values for the pEC50 in the series with HCV RNA replicon ET and with HIV-1IIIB were 6.46 and 6.05, respectively. In addition, the EC90 with HCV RNA replicon ET was 1260 nM. Moreover, in series [2], the IC90 is greater than 20000 nM.

Compound `C/C=C/C[C@@H](C)[C@@H](O)[C@H]1C(=O)N[C@@H](CC)C(=O)N(C)C(OCc2ccc(OC(F)(F)F)cc2)C(=O)N(C)[C@@H](CC(C)C)C(=O)N[C@@H](C(C)C)C(=O)N(C)[C@@H](CC(C)C)C(=O)N[C@@H](C)C(=O)N[C@H](C)C(=O)N(C)[C@@H](CC(C)C)C(=O)N(C)[C@@H](CC(C)C)C(=O)N(C)[C@@H](C(C)C)C(=O)N1C` (stereo partly drawn) [F, 3-[(4-trifluoromethoxy)benzyloxy]cyclosporin] showed a pIC50 in series [1] of less than 4.70. In the series with HCV RNA replicon ET, this compound had a negative logarithm of the EC50 (pEC50) of 5.93 and an EC90 of 5420 nM. In series [2], the pIC50 is less than 4.70 and the IC90 is greater than 20000 nM. The same compound showed a pEC50 in the series with HIV-1IIIB of less than 4.70.

On to `C/C=C/C[C@@H](C)[C@@H](O)[C@H]1C(=O)N[C@@H](CC)C(=O)N(C)C(OCc2ccsc2)C(=O)N(C)[C@@H](CC(C)C)C(=O)N[C@@H](C(C)C)C(=O)N(C)[C@@H](CC(C)C)C(=O)N[C@@H](C)C(=O)N[C@H](C)C(=O)N(C)[C@@H](CC(C)C)C(=O)N(C)[C@@H](CC(C)C)C(=O)N(C)[C@@H](C(C)C)C(=O)N1C` (stereo partly drawn) [G, 3-[(thiophene-3-yl)methoxy]cyclosporin], for which the pIC50 in series [1] was less than 4.70. Further, in the series with HCV RNA replicon ET, the pEC50 was 6.46 and the EC90 stood at 400 nM. Moreover, in series [2], the pIC50 is less than 4.70 and the IC90 is greater than 20000 nM. The pEC50 in the series with HIV-1IIIB is 5.52.
